According to ChEMBL document CHEMBL4177532, “Antibacterial Nerol Cinnamates from the Australian Plant Eremophila longifolia” (J Nat Prod, 2017):
Values after ≈ are worked out from the molar mass of the structure shown.

Experiments:
MRC5 = test: Cytotoxicity against human MRC5 cells; type: cell-based
[1] = test system: Trypanosoma brucei brucei; test: Antitrypanosomal activity against Trypanosoma brucei brucei GUTat 3.1 incubated for 72 hrs by alamar blue dye based assay; type: functional, organism-based; conditions: GUTat 3.1, 72 h
Staphylococcus aureus [2] = test: Antimicrobial activity against vancomycin-resistant Staphylococcus aureus NARSA VRS 1 by microdilution plate based method; type: functional
Staphylococcus aureus [3] = test: microbe, parasite or virus in culture; type: functional; conditions: ATCC 43300
Description: Antimicrobial activity against methicillin-sensitive Staphylococcus aureus ATCC 43300 by microdilution plate based method

Streptococcus pneumoniae = test: Antimicrobial activity against multidrug resistant Streptococcus pneumoniae ATCC 700677 by microdilution plate based method; type: functional
Enterococcus faecium = test: Antimicrobial activity against vancomycin-resistant and VanA expressing Enterococcus faecium ATCC 51559 by microdilution plate based method; type: functional
Staphylococcus aureus [4] = test: Antimicrobial activity against glycopeptide intermediate resistant Staphylococcus aureus NARSA NRS 17 by microdilution plate based method; type: functional
Escherichia coli [5] = test: Antimicrobial activity against Escherichia coli ATCC 25922 by microdilution plate based method; type: functional
Cryptococcus neoformans = test: Antimicrobial activity against Cryptococcus neoformans ATCC 208821 by microdilution plate based method; type: functional
[6] = Drug metabolism assessed as compound auto-oxidation; type: physicochemical
[7] = Cytotoxicity against HEK293 cells assessed as reduction in cell viability incubated for 24 hrs by resazurin based assay; conditions: human
HepG2 = test: Cytotoxicity against human HepG2 cells assessed as reduction in cell viability incubated for 24 hrs by resazurin based assay; type: functional; conditions: HepG2, 24 h
Candida albicans = test: Antimicrobial activity against Candida albicans ATCC 90028 by microdilution plate based method; type: functional
Acinetobacter baumannii = test: Antimicrobial activity against Acinetobacter baumannii ATCC 19606 by microdilution plate based method; type: functional; conditions: ATCC 19606 = CIP 70.34 = JCM 6841
Escherichia coli [8] = test: Antimicrobial activity against Escherichia coli; type: functional
Staphylococcus aureus [9] = test: Antimicrobial activity against Staphylococcus aureus; type: functional

Compound | MIC (Staphylococcus aureus [2]) [µg/mL] | MIC (Staphylococcus aureus [3]) [µg/mL] | MIC (Streptococcus pneumoniae) [µg/mL] | MIC (Enterococcus faecium) [µg/mL] | MIC (Staphylococcus aureus [4]) [µg/mL] | MIC (Escherichia coli [5]) [µg/mL] | MIC (Cryptococcus neoformans) [µg/mL] | CC50 at 24 h [7] [µM] | CC50 (HepG2) [µM] | MIC (Candida albicans) [µg/mL] | MIC (Acinetobacter baumannii) [µg/mL] | further results
CC(C)=CCC/C(C)=C\CC/C(C)=C\COC(=O)/C=C/c1ccc(O)c(O)c1 [FARNESYL CAFFEATE] | – | – | – | – | – | – | – | – | – | – | – | IC50 (MRC5): 13.3 µg/mL (≈ 34.6 µM); IC50 [1]: 0.23 µg/mL (≈ 0.598 µM)
CCCCCCCCCC(=O)N[C@@H](Cc1c[nH]c2ccccc12)C(=O)N[C@@H](CC(N)=O)C(=O)N[C@@H](CC(=O)O)C(=O)N[C@@H]1C(=O)NCC(=O)N[C@@H](CCCN)C(=O)N[C@@H](CC(=O)O)C(=O)N[C@H](C)C(=O)N[C@@H](CC(=O)O)C(=O)NCC(=O)N[C@H](CO)C(=O)N[C@@H]([C@H](C)CC(=O)O)C(=O)N[C@@H](CC(=O)c2ccccc2N)C(=O)O[C@@H]1C [DAPTOMYCIN] | 8 (≈ 4.94 µM) | 4 (≈ 2.47 µM) | 8 (≈ 4.94 µM) | 32 (≈ 19.7 µM) | 16 to 32 (≈ 9.87 to 19.7 µM) | – | – | – | – | – | – | –
CC(C)=CCC/C(C)=C\COC(=O)/C=C/c1ccc(O)cc1 | > 64 | > 64 | 64 (≈ 213 µM) | 8 (≈ 26.6 µM) | > 64 | > 64 | 32 to 64 (≈ 107 to 213 µM) | 273 | 157 | > 64 | > 64 | Drug metabolism [6]: Metabolite_Detected
COc1cc(/C=C/C(=O)OC/C=C(/C)CCC=C(C)C)ccc1O | 16 to 32 (≈ 48.4 to 96.8 µM) | 16 (≈ 48.4 µM) | 8 to 16 (≈ 24.2 to 48.4 µM) | 8 (≈ 24.2 µM) | 16 (≈ 48.4 µM) | > 64 | 32 to 64 (≈ 96.8 to 194 µM) | 273 | 300 | > 64 | > 64 | Drug metabolism [6]: Metabolite_Detected
CC[C@H](C)CCCCC(=O)N[C@@H](CCN)C(=O)N[C@H](C(=O)N[C@@H](CCN)C(=O)N[C@H]1CCNC(=O)[C@H]([C@@H](C)O)NC(=O)[C@H](CCN)NC(=O)[C@H](CCN)NC(=O)[C@H](CC(C)C)NC(=O)[C@@H](Cc2ccccc2)NC(=O)[C@H](CCN)NC1=O)[C@@H](C)O.O=S(=O)(O)O.O=S(=O)(O)O | – | – | – | – | – | 0.3 | – | – | – | – | 0.3 | –
OC(Cn1cncn1)(Cn1cncn1)c1ccc(F)cc1F [FLUCONAZOLE] | – | – | – | – | – | – | 8 (≈ 26.1 µM) | – | – | 0.3 to 0.5 (≈ 0.98 to 1.63 µM) | – | –
CN[C@H](CC(C)C)C(=O)N[C@H]1C(=O)N[C@@H](CC(N)=O)C(=O)N[C@H]2C(=O)N[C@H]3C(=O)N[C@H](C(=O)N[C@H](C(=O)O)c4cc(O)cc(O)c4-c4cc3ccc4O)[C@H](O)c3ccc(c(Cl)c3)Oc3cc2cc(c3O[C@@H]2O[C@H](CO)[C@@H](O)[C@H](O)[C@H]2O[C@H]2C[C@](C)(N)[C@H](O)[C@H](C)O2)Oc2ccc(cc2Cl)[C@H]1O.Cl [VANCOMYCIN HYDROCHLORIDE] | > 32 | – | 2 | > 32 | > 32 | – | – | – | – | – | – | –
CC(C)=CCC/C(C)=C/COC(=O)/C=C/c1ccccc1 | – | – | – | – | – | – | – | – | – | – | – | MIC (Escherichia coli [8]): 5000 µg/mL (≈ 17600 µM); MIC (Staphylococcus aureus [9]): 5000 µg/mL (≈ 17600 µM)
